Results published in patent US8440711B2, “2-aryl-2-fluoropropanoic acids and derivatives and pharmaceutical compositions containing them” (Dompe Pha.r.ma S.p.A., priority 2006, dated 2013).
Structures can show the parent of a compound that is named as a salt. Where two headings read alike, the source gives them in different places.

How the values were obtained:
[1] = Protein binding in rat plasma (ultrafiltration); assay type: in vitro ADME; details: 37° C.
Protocol: (§1) Protein Binding was determined as follows: Duplicate rat plasma samples of each compound at 50 μg/mL concentration were incubated at 37° C. for 20 minutes under gentle shaking. Then samples were ultrafiltrated through Centrifree® micropartition devices by centrifugation at 1500 g for 15 minutes. The ultrafiltrate was subjected to HPLC-MS/MS quantitative analysis (Column Luna C18, 150×2 mm ID 5 μm (Phenomenex), mobile phase: eluent A) 0.02M HCOO—NH4+ (pH 4.3 with HCOOH); eluent B) CH3OH).

[2] = Pharmacokinetic profile after intravenous and oral administration; assay type: in vivo; details: male, rat, plasma; for bioavailability: po; for half-life: read-out: t½ (converted)
Protocol: The pharmacokinetic profile of the compounds of formula (I) was evaluated in male mice or rats after intravenous and oral administration. The pharmacokinetic analysis was performed using plasmatic concentrations of the compounds at different times. The data were evaluated by Kinetica 2000™, Version 3.0 Software [InnaPhase Corporation, World headquarters, 1700 Race Street, Philadelphia, Pa. 19103 USA]. The pharmacokinetic parameters were calculated according the following formulas: Kel=elimination rate constant; t1/2=In2/Kel, AUC=AUC0n+AUCextra, where AUC0n=AUC from t=0 to t last (Trapezoidal Method) and AUCextra=extrapolated AUC=Clast/Kel; Clearance=D/AUC; Vd=Cl/Kel; Oral bioavailability F=(AUCp.o./AUCi.v.)*(Di.v./Dp.o.)*100.

[3] = tested on: GRO-α induced chemotaxis of polymorphonucleate leukocytes (PMNs); test: GRO-α induced chemotaxis of human PMNs; assay type: cell-based; details: Leukocyte; for inhibition at 0.01 µM: 10^−8 M
Protocol: (§2) The compounds of the invention of formula (I) were evaluated in vitro for their ability to inhibit chemotaxis of polymorphonucleate leukocytes (hereinafter referred to as PMNs) and monocytes induced by the fractions of CXCL8 and GRO-α and C5a and compared to the corresponding non fluorinated parent compounds. For this purpose, in order to isolate the PMNs from heparinized human blood, taken from healthy adult volunteers, mononucleates were removed by means of sedimentation on dextran (according to the procedure disclosed by W. J. Ming et al., J. Immunol., 138, 1469, 1987) and red blood cells by a hypotonic solution. The cell vitality was calculated by exclusion with Trypan blue, whilst the ratio of the circulating polymorphonucleates was estimated on the cytocentrifugate after staining with Diff Quick.
GRO-α induced chemotaxis inhibition was evaluated in an analogous assay.
(§3) In the chemotaxis experiments, the PMNs were incubated with the compounds of the invention of formula (I) for 15′ at 37° C. in an atmosphere containing 5% CO2.
(§4) During the chemotaxis assay (W. Falket et al., J. Immunol. Methods, 33, 239, 1980) PVP-free filters with a porosity of 5 μm and microchambers suitable for replication were used.
(§5) The compounds of the invention in formula (I) were evaluated at a concentration ranging between 10^−6 and 10^−10 M; for this purpose they were added, at the same concentration, both to the lower pores and the upper pores of the microchamber. Evaluation of the ability of the compounds of the invention of formula (I) to inhibit the chemotaxis of human monocytes was carried out according to the method disclosed (Van Damme J. et al., Eur. J. Immunol., 19, 2367, 1989).

[4] = tested on: CXCL8 induced chemotaxis of polymorphonucleate leukocytes (PMNs); test: CXCL8 induced chemotaxis of human PMNs; assay type: cell-based; details: Leukocyte; for inhibition at 0.001 µM: 10^−9 M
Protocol: as §2
In the CXCL8 induced chemotaxis assay human recombinant CXCL8 (Pepro Tech) was used as stimulating agents in the chemotaxis experiments: the lyophilized protein was dissolved in a volume of HBSS containing 0.2% bovin serum albumin (BSA) so thus to obtain a stock solution having a concentration of 10^−5 M to be diluted in HBSS to a concentration of 10^−9 M, for the chemotaxis assays.
as §3, §4, §5

[5] = tested on: C5a induced chemotaxis of polymorphonucleate leukocytes (PMNs); test: C5a induced chemotaxis of human PMNs; assay type: cell-based; details: Leukocyte, 10^−8 M, Table 2
Protocol: as §2
In the C5a induced chemotaxis assay the fractions hr-C5a and hrC5a-desArg (Sigma) were used as stimulating agents in chemotaxis experiments, obtaining practically identical results. Lyophilized C5a was dissolved in a volume of HBSS containing 0.2% BSA so as to obtain a stock solution having a concentration of 10^−5 M, to be diluted in HBSS to a concentration of 10^−9 M, for the chemotaxis assays.
as §3
The chemotactic activity of the C5a was evaluated on human circulating polymorphonucleates (PMNs) resuspended in HBSS at a concentration of 1.5×10^6 PMNs per nil.
as §4, §5

[6] = Protein binding, experiments performed in mouse; assay type: in vitro ADME; details: plasma; values marked *: experiments performed in mouse
Protocol: as §1

[7] = values marked *: 10^−7 M, Table 1, read-out: GRO-α (% of inhibition at 10^−7 M)
[8] = Table 1, read-out: CXCL8 (% inhibition at 10^−9 M)

## C[C@@H](C(N)=O)c1ccc(OS(=O)(=O)C(F)(F)F)cc1
[1]
  fraction unbound at 20 min, 50 μg/mL: 0.06
[2]
  Vd: 0.55 L/kg
  clearance: 3.67 mL/min/kg
  bioavailability: 72%
  half-life: 1.9 h

## CC(O)(C(N)=O)c1ccc(OS(=O)(=O)C(F)(F)F)cc1 (centres unmarked)
[1]
  fraction unbound at 20 min, 50 μg/mL: 0.2
[2]
  Vd: 1.33 L/kg
  clearance: 0.65 mL/min/kg
  bioavailability: 85%
  half-life: 25 h

## CC(F)(C(N)=O)c1ccc(OS(=O)(=O)C(F)(F)F)cc1 (centres unmarked) (as salt: methanesulfonate) [Compound 8, 4-(2-amino-1-fluoro-1-methyl-2-oxoethyl)phenyl trifluoromethanesulfonate]
other
  melting point: 85 to 87 °C

## CC(F)(C(=O)O)c1ccc(OS(=O)(=O)C(F)(F)F)cc1 (centres unmarked) [Compound 1, 2-Fluoro-2-(4-{[(trifluoromethyl)sulfonyl]oxy}phenyl) propanoic acid]
[3]; [7]
  inhibition at 0.1 µM: 47 ± 10%

## C[C@@](F)(C(=O)O)c1ccc(OS(=O)(=O)C(F)(F)F)cc1 [Compound 2, (2S)-2-fluoro-2-(4-{[(trifluoromethyl)sulfonyl]oxy}phenyl)propanoic acid]
other
  melting point: 91 to 94 °C
[3]; [7]
  inhibition at 0.1 µM: 43 ± 15%

## C[C@](F)(C(=O)O)c1ccc(OS(=O)(=O)C(F)(F)F)cc1 [Compound 3, (2R)-2-fluoro-2-(4-{[(trifluoromethyl)sulfonyl]oxy}phenyl)propanoic acid]
other
  melting point: 90 to 94 °C
[3]; [7]
  inhibition at 0.1 µM: 49 ± 6%

## C[C@@](F)(C(=O)NO)c1ccc(OS(=O)(=O)C(F)(F)F)cc1 [Compound 4, 4-[(1S)-1-fluoro-2-(hydroxyamino)-1-methyl-2-oxoethyl}phenyl trifluoromethanesulfonate]
[3]; Table 1
  inhibition at 0.01 µM: 55 ± 10%

## CN(O)C(=O)[C@@](C)(F)c1ccc(OS(=O)(=O)C(F)(F)F)cc1 [Compound 5, 4-[(1S)-1-fluoro-2-[hydroxyl(methyl)amino]-1-methyl-2-oxoethyl}phenyl trifluoromethane sulfonate]
[3]; Table 1
  inhibition at 0.01 µM: 40 ± 8%

## CC(F)(C(=O)O)c1cccc(C(=O)c2ccccc2)c1 (centres unmarked) [Compound 6, 2-(3-benzoylphenyl)-2-fluoropropanoic acid]
[3]; Table 1
  inhibition at 0.01 µM: 42 ± 4%

## CC(F)(C(=O)O)c1cccc(Nc2nc(C(F)(F)F)cs2)c1 (centres unmarked) [Compound 7]
[4]; [8]
  inhibition at 0.001 µM: 21 ± 6%
[3]; Table 1
  inhibition at 0.01 µM: 60 ± 10%

## CC(F)(C(N)=O)c1ccc(OS(=O)(=O)C(F)(F)F)cc1 (centres unmarked) [Compound 8, 4-(2-amino-1-fluoro-1-methyl-2-oxoethyl)phenyl trifluoromethanesulfonate]
[4]; [8]
  inhibition at 0.001 µM: 50 ± 9%
[3]; Table 1
  inhibition at 0.01 µM: 57 ± 12%

## C[C@](F)(C(N)=O)c1ccc(OS(=O)(=O)C(F)(F)F)cc1 [Compound 9, 4-[(1R)-2-amino-1-fluoro-1-methyl-2-oxoethyl)phenyl trifluoromethanesulfonate]
[3]; Table 1
  inhibition at 0.01 µM: 53 ± 9%

## C[C@@](F)(C(N)=O)c1ccc(OS(=O)(=O)C(F)(F)F)cc1 [Compound 10, 4-[(1S)-2-amino-1-fluoro-1-methyl-2-oxoethyl)phenyl trifluoromethanesulfonate]
[4]; [8]
  inhibition at 0.001 µM: 50 ± 6%
[3]; Table 1
  inhibition at 0.01 µM: 10 ± 12%

## CONC(=O)C(C)(F)c1ccc(OS(=O)(=O)C(F)(F)F)cc1 (centres unmarked) [Compound 11, 4-[1-fluoro-2-(methoxyamino)-1-methyl-2-oxoethyl]phenyl trifluoromethanesulfonate]
[4]; values marked *: 10^−7 M, Table 1, read-out: CXCL8 (% of inhibition at 10^−7 M)
  inhibition at 0.1 µM: 40 ± 10%
[3]; Table 1
  inhibition at 0.01 µM: 7 ± 8%

## CC(C)NC(=O)C(C)(F)c1ccc(OS(=O)(=O)C(F)(F)F)cc1 (centres unmarked) [Compound 12, 4-[1-fluoro-2-(isopropylamino)-1-methyl-2-oxoethyl]phenyl trifluoromethanesulfonate]
[3]; [7]
  inhibition at 0.1 µM: 45 ± 8%

## CC(F)(C(N)=O)c1cccc(C(=O)c2ccccc2)c1 (centres unmarked) [Compound 13, 2-(3-benzoylphenyl)-2-fluoropropanamide]
[4]; marked *, no footnote in Table 2 (Table 1: * = 10^−7 M), read-out: CSCL8 (% inhibition), value marked *
  inhibition at 0.1 µM: 52 ± 8%
[3]; marked *, no footnote in Table 2 (Table 1: * = 10^−7 M), read-out: GRO-α (% inhibition), value marked *
  inhibition at 0.1 µM: 50 ± 12%
[5]
  inhibition at 0.01 µM: 47 ± 9%

## CC(F)(C(N)=O)c1cccc(Nc2nc(C(F)(F)F)cs2)c1 (centres unmarked) [Compound 14, 2-fluoro-2-(3-{[4-(trifluoromethyl)-1,3-thiazol-2-yl]amino}phenyl)propanamide]
[4]; Table 2, read-out: CSCL8 (% inhibition at 10^−9 M)
  inhibition at 0.001 µM: 36 ± 12%
[3]; Table 2
  inhibition at 0.01 µM: 55 ± 7%
[5]
  inhibition at 0.01 µM: 33 ± 5%

## C[C@H](NC(=O)[C@](C)(F)c1ccc(OS(=O)(=O)C(F)(F)F)cc1)C(=O)O [Compound 15, (2S)-2-{[(2R)-2-fluoro-2-(4-{[(trifluoromethyl)sulfonyl]oxy}phenyl)propanoyl]amino}propanoic acid]
[4]; [8]
  inhibition at 0.001 µM: 55 ± 8%

## C[C@H](NC(=O)C(C)(F)c1cccc(Nc2nc(C(F)(F)F)cs2)c1)C(=O)O (stereo partly drawn) [Compound 16, (2S)-2-{[2-fluoro-2-(3-{[4-(trifluoromethyl)-1,3-thiazol-2-yl]amino}phenyl)propanoyl]amino}propanoic acid]
[4]; [8]
  inhibition at 0.001 µM: 50 ± 12%

## C[C@](F)(C(=O)NS(C)(=O)=O)c1ccc(OS(=O)(=O)C(F)(F)F)cc1 [Compound 17, 4-{(1R)-1-fluoro-1-methyl-2-[(methylsulfonyl)amino]-2-oxoethyl}phenyl trifluoromethanesulfonate]
[3]; Table 1
  inhibition at 0.01 µM: 57 ± 14%

## C[C@@](F)(C(=O)NCCCN1CCCC1)c1ccc(OS(=O)(=O)C(F)(F)F)cc1 [Compound 18]
[5]
  inhibition at 0.01 µM: 53 ± 5%

## C[C@](F)(C(=O)NC[C@H]1CCCN1)c1ccc(OS(=O)(=O)C(F)(F)F)cc1 [Compound 19, 4-((1R)-1-fluoro-1-methyl-2-oxo-2-{[(2R)-pyrrolidin-2-ylmethyl]amino}ethyl)phenyl trifluoromethanesulfonate]
[5]
  inhibition at 0.01 µM: 45 ± 4%

## C[C@](F)(C(N)=O)c1ccc(OS(=O)(=O)C(F)(F)F)cc1 [drawing 24]
[6]
  fraction unbound at 20 min, 50 μg/mL: 0.05
[2]
  Vd: 0.631 L/kg
  clearance: 0.53 mL/min/kg
  bioavailability: 46.8%
  half-life: 13.8 h

## C[C@@](F)(C(N)=O)c1ccc(OS(=O)(=O)C(F)(F)F)cc1 [drawing 25]
[6]
  fraction unbound at 20 min, 50 μg/mL: 0.08
[2]
  Vd: 1.47 L/kg
  clearance: 2.28 mL/min/kg
  bioavailability: 84.2%
  half-life: 9.1 h
